In brackets after ≈: the same amount, converted by molar mass.
system: S. aureus; assay: Minimum inhibitory concentrations (MICs) for S. aureus of exemplary compounds (Table 2); assay type: cell-based; conditions: Staphylococcus aureus, minimum inhibitory concentrations for S. aureus; read-out: MICs
Procedure, shortened: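 MICs (μg/mL) against S. aureus come from microtiter-tray dilution susceptibility testing per NCCLS M7-A5, comparing growth with and without compound.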

Row | SMILES | MIC [µg/mL]
1 | CC(=O)NC[C@H]1CN(c2ccc(-c3ccc(CSc4ncn[nH]4)cc3)c(F)c2)C(=O)O1 [Compound 2047, N-{3-[2-Fluoro-4′-(2H-[1,2,4]triazol-3-ylsulfanylmethyl)-biphenyl-4-yl]-2-oxo-oxazolidin-5-(S)-ylmethyl}-acetamide] | 0.25 (≈ 0.566 µM)
2 | COc1ccc(CNCc2ccc(-c3ccc(N4C[C@H](CNC(C)=O)OC4=O)cc3F)cc2)cn1 [Compound 4054, N-[3-(2-Fluoro-4′-{[(6-methoxy-pyridin-3-ylmethyl)-amino]-methyl}-biphenyl-4-yl)-2-oxo-oxazolidin-5-(S)-ylmethyl]-acetamide] | 1 (≈ 2.09 µM)
3 | CC(=O)NC[C@H]1CN(c2ccc(-c3ccc(CNCc4ccc(Cl)cc4Cl)cc3)c(F)c2)C(=O)O1 [Compound 4064, N-(3-{4′-[(2,4-Dichloro-benzylamino)-methyl]-2-fluoro-biphenyl-4-yl}-2-oxo-oxazolidin-5-(S)-ylmethyl)-acetamide] | 2 (≈ 3.87 µM)
4 | CC(=O)NC[C@H]1CN(c2ccc(-c3ccc([C@@H](NCc4ccncc4)C(N)=O)cc3)c(F)c2)C(=O)O1 [Compound 4184, 2-{4′-[5-(S)-(Acetylamino-methyl)-2-oxo-oxazolidin-3-yl]-2′-fluoro-biphenyl-4-yl}-2-(R)-[(pyridin-4-ylmethyl)-amino]-acetamide] | 16 (≈ 32.6 µM)
5 | CC(=O)NC[C@H]1CN(c2ccc(-c3ccc(CNCc4cc(-c5ccccc5)oc4C)cc3)c(F)c2)C(=O)O1 [Compound 4130, N-[3-(2-Fluoro-4′-{[(2-methyl-5-phenyl-furan-3-ylmethyl)-amino]-methyl}-biphenyl-4-yl)-2-oxo-oxazolidin-5-(S)-ylmethyl]-acetamide] | 2 (≈ 3.79 µM)
6 | CC(=O)NC[C@H]1CN(c2ccc(-c3ccc(Cn4ccc(C=O)c4)cc3)c(F)c2)C(=O)O1 [Compound 1055, N-{3-[2-Fluoro-4′-(3-formyl-pyrrol-1-ylmethyl)-biphenyl-4-yl]-2-oxo-oxazolidin-5-(S)-ylmethyl}-acetamide] | 0.25 (≈ 0.574 µM)
7 | CC(=O)NC[C@H]1CN(c2ccc(-c3ccc(CNC(=O)C4CCC(=O)N4)cc3)c(F)c2)C(=O)O1 (stereo partly drawn) [Compound 4289, 5-Oxo-pyrrolidine-2-carboxylic acid {4′-[5-(S)-(acetylamino-methyl)-2-oxo-oxazolidin-3-yl]-2′-fluoro-biphenyl-4-ylmethyl}-amide] | 8 (≈ 17.1 µM)
8 | CC(=O)NC[C@H]1CN(c2ccc(-c3ccc(CNC(=O)c4csc(NCc5ccc(Cl)cc5)n4)cc3)c(F)c2)C(=O)O1 [Compound 4207, 2-(4-Chloro-benzylamino)-thiazole-4-carboxylic acid {4′-[5-(S)-(acetylamino-methyl)-2-oxo-oxazolidin-3-yl]-2′-fluoro-biphenyl-4-ylmethyl}-amide] | 2 (≈ 3.29 µM)
9 | CC(=O)NC[C@H]1CN(c2ccc(-c3ccc(CNCc4ccoc4)cc3)c(F)c2)C(=O)O1 [Compound 4023, N-[3-(2-Fluoro-4′-{[(furan-3-ylmethyl)-amino]-methyl}-biphenyl-4-yl)-2-oxo-oxazolidin-5-(S)-ylmethyl]-acetamide] | 1 (≈ 2.29 µM)
10 | CCOC(=O)c1cnn(Cc2ccc(-c3ccc(N4C[C@H](CNC(C)=O)OC4=O)cc3F)cc2)c1 [Compound 1049, 1-{4′-[5-(S)-(Acetylamino-methyl)-2-oxo-oxazolidin-3-yl]-2′-fluoro-biphenyl-4-ylmethyl}-1H-pyrazole-4-carboxylic acid ethyl ester] | 0.5 (≈ 1.04 µM)
11 | CC(=O)NC[C@H]1CN(c2ccc(-c3ccc(CNCC4CCNCC4)cc3)c(F)c2)C(=O)O1 [Compound 4186, N-[3-(2-Fluoro-4′-{[(piperidin-4-ylmethyl)-amino]-methyl}-biphenyl-4-yl)-2-oxo-oxazolidin-5-(S)-ylmethyl]-acetamide] | 64 (≈ 141 µM)
12 | CC(=O)NC[C@H]1CN(c2ccc(-c3ccc(Cn4cnc5c(NCC(F)(F)F)ncnc54)cc3)c(F)c2)C(=O)O1 [Compound 1104, N-(3-{2-Fluoro-4′-[6-(2,2,2-trifluoro-ethylamino)-purin-9-ylmethyl]-biphenyl-4-yl}-2-oxo-oxazolidin-5-(S)-ylmethyl)-acetamide] | 1 (≈ 1.79 µM)

Source: patent US10471046B2, “Method for treating, preventing, or reducing the risk of skin infection” (Melinta Subsidiary Corp., priority 2014, dated 2019)
